Here are results for 18 compounds from US8017767B2, “Sucralose composition” (Tate & Lyle Public Limited Company, priority 2000, dated 2011).

SMILES strings stand for the structures.

This data set can be described thus: Accelerated stability test (50° C.) with pH stability test of sucralose sample solution. Format: physicochemical. As to conditions: for Days to pH Failure / Ph Stability / Days to pH Failure (Final Product Moisture Content) / Days to pH Failure (Initial Moisture Content): 50° C.; for Days to pH Failure: WHIRLPAK polyethylene bags, failure = pH drop ≧1.0; for Initial pH: sample solution (5 g in 50 ml pH-adjusted water) at time zero; for Initial pH difference: sample solution vs pH-adjusted water at time zero; for stability at intermediate moisture contents compared with final moisture levels: crystallized with no pH control, intermediate moisture 3 to 5% vs final 0.05, 0.11, 0.21%; for Days to pH Failure (Final Product Moisture Content): final dried product; for Days to pH Failure (Final Product Moisture Content) / Days to pH Failure (Initial Moisture Content): Example 3; for Days to pH Failure (Initial Moisture Content): partially dried product at intermediate (initial) moisture content. The source says: Label seven 6 oz. and seven 18 oz. WHIRLPAK® polyethylene bags with indelible marker for each batch being tested for stability. Accurately weigh 25 g±0.01 g of sucralose into each 6 oz. WHIRLPAK® polyethylene bag. Heat or impulse seal the 6 oz. bag to ensure air tightness. Cut off any excess polyethylene at the top of the bag above the seal. Place the 6 oz. sealed bag into the 18 oz. bag and heat or impulse seal the 18 oz. bag to ensure air tightness. Roll down the top of the 18 oz. bag above the seal and bend the metal ties to form hooks.
Place the prepared bags into an oven stabilized at 50° C.±0.5° C. by hanging them from racks by the bag hooks. The bags must be freely suspended and not touch anything. Record the time samples are placed into the oven.
The pH stability test is conducted on the sucralose at time zero (the day the samples are placed in the oven, before the sucralose is exposed to elevated temperature) and every 24 hours until the batch being tested fails the test.
Place approximately 100 ml of deionized water into a 150 ml beaker. Using 0.1 N hydrochloric acid and/or 0.1 N sodium hydroxide, adjust the pH of the water to be between 5.8 and 6.0. Record the pH reading.
Accurately weigh 5 g±0.001 g of the product to be tested and transfer it to a 50 ml volumetric flask. Dissolve and bring to the mark by adding pH-adjusted water. If the sample to be tested is one that has been exposed to heat, remove one bag of the batch being tested from the oven and allow it to cool to room temperature before opening and sampling.
Pour the solution into a 100 ml beaker containing a stir bar, and slowly stir the solution on a magnetic stirrer. Immerse the pH electrode in the sample, allow the pH reading to stabilize, and record the pH reading of the sample. If no pH drop is observed after all the bags have been tested, the experiment is void and the test must repeated with a larger number of bags.
Record (to one decimal place) the pH of both the pH-adjusted water used and the sample sucralose solution. Subtract the pH of the […]. Report the result as (−) for a pH drop and (+) for a pH gain, e.g.:
The sample fails the test if there is a pH drop of 1.0 pH unit or more. The pH stability of the batch is defined as the number of days until the pH drop between the sample solution and that of the pH adjusted water is ≧1.0.
Samples of sucralose were tested for stability using the above procedures, but using bags of different moisture permeability. All other experimental details were the same. The TYVEK®/polyethylene bags are permeable; the WHIRLPAK® bags are less permeable. The A8080 bag consists of aluminum foil laminated to low-density polyethylene, which makes it very impermeable to moisture.

Where [1] appears, read: Example 1, sodium acetate in mother liquor varied.
Setting [2] is: (−) pH drop, (+) pH gain, Example 1.
Where [3] appears, read: Example 2, pH at crystallizer varied.

Turning to `OC[C@H]1O[C@H](O[C@]2(CCl)O[C@H](CCl)[C@@H](O)[C@@H]2O)[C@H](O)[C@@H](O)[C@H]1Cl` [Sample 21, 4,1′,6′-trichloro-4,1′,6′-trideoxy-galactosucrose], under setting [1], the “Days to pH Failure” value is 6 Days and the “Initial pH” value is listed as 6.05. In addition, the “Initial pH difference” value under setting [2] is on record as “+0.10”.

With `OC[C@H]1O[C@H](O[C@]2(CCl)O[C@H](CCl)[C@@H](O)[C@@H]2O)[C@H](O)[C@@H](O)[C@H]1Cl` [Sample 22, 4,1′,6′-trichloro-4,1′,6′-trideoxy-galactosucrose], under setting [1], the “Days to pH Failure” value turned out to be 6 Days and the “Initial pH” value is 6.08. Also, the “Initial pH difference” value under setting [2] is recorded as “+0.09”.

`OC[C@H]1O[C@H](O[C@]2(CCl)O[C@H](CCl)[C@@H](O)[C@@H]2O)[C@H](O)[C@@H](O)[C@H]1Cl` [Sample 23, 4,1′,6′-trichloro-4,1′,6′-trideoxy-galactosucrose]: under setting [1], the “Days to pH Failure” value is on record as 5 Days and the “Initial pH” value is 6.12. Under setting [2], the “Initial pH difference” value was “+0.13”.

Regarding `OC[C@H]1O[C@H](O[C@]2(CCl)O[C@H](CCl)[C@@H](O)[C@@H]2O)[C@H](O)[C@@H](O)[C@H]1Cl` [Sample 24, 4,1′,6′-trichloro-4,1′,6′-trideoxy-galactosucrose], the “Days to pH Failure” value under setting [1] amounted to 5 Days. Further, the “Ph Stability” value is, setting by setting: (package A8080 (aluminum foil laminated to low-density polyethylene), impermeable) 8 days; (package FF 91 TYVEK/Polyethylene, very permeable) 4 days; (package WHIRLPAK Polyethylene, moderately permeable) 5 days. Moreover, the “Initial pH” value under setting [1] came out at 6.02. For the same compound, under setting [2], the “Initial pH difference” value was “+0.03”.

Take `OC[C@H]1O[C@H](O[C@]2(CCl)O[C@H](CCl)[C@@H](O)[C@@H]2O)[C@H](O)[C@@H](O)[C@H]1Cl` [Sample 25, 4,1′,6′-trichloro-4,1′,6′-trideoxy-galactosucrose]: under setting [1], the “Days to pH Failure” value stood at 6 Days and the “Initial pH” value was 6.03. Besides, the “Initial pH difference” value under setting [2] was “+0.05”.

Regarding `OC[C@H]1O[C@H](O[C@]2(CCl)O[C@H](CCl)[C@@H](O)[C@@H]2O)[C@H](O)[C@@H](O)[C@H]1Cl` [Sample 26, 4,1′,6′-trichloro-4,1′,6′-trideoxy-galactosucrose], under setting [1], the “Days to pH Failure” value is 6 Days and the “Initial pH” value is reported as 6.06. For the same compound, the “Initial pH difference” value under setting [2] is “+0.10”.

Regarding `OC[C@H]1O[C@H](O[C@]2(CCl)O[C@H](CCl)[C@@H](O)[C@@H]2O)[C@H](O)[C@@H](O)[C@H]1Cl` [Sample 27, 4,1′,6′-trichloro-4,1′,6′-trideoxy-galactosucrose], under setting [1], the “Days to pH Failure” value was found to be 6 Days and the “Initial pH” value is 5.99. The “Initial pH difference” value under setting [2] is listed as “+0.03”.

For `OC[C@H]1O[C@H](O[C@]2(CCl)O[C@H](CCl)[C@@H](O)[C@@H]2O)[C@H](O)[C@@H](O)[C@H]1Cl` [Sample 28, 4,1′,6′-trichloro-4,1′,6′-trideoxy-galactosucrose], under setting [1], the “Days to pH Failure” value was determined as 6 Days and the “Initial pH” value was 6.00. For the same compound, under setting [2], the “Initial pH difference” value is on record as “+0.02”.

Turning to `OC[C@H]1O[C@H](O[C@]2(CCl)O[C@H](CCl)[C@@H](O)[C@@H]2O)[C@H](O)[C@@H](O)[C@H]1Cl` [Sample 29, 4,1′,6′-trichloro-4,1′,6′-trideoxy-galactosucrose], under setting [1], the “Days to pH Failure” value came out at 6 Days and the “Initial pH” value is given as 6.09. Besides, the “Initial pH difference” value under setting [2] is recorded as “+0.12”.

Take `OC[C@H]1O[C@H](O[C@]2(CCl)O[C@H](CCl)[C@@H](O)[C@@H]2O)[C@H](O)[C@@H](O)[C@H]1Cl` [Sample 30, 4,1′,6′-trichloro-4,1′,6′-trideoxy-galactosucrose]: under setting [1], the “Days to pH Failure” value is recorded as 5 Days and the “Initial pH” value stood at 5.95. For the same compound, the “Initial pH difference” value under setting [2] is −0.02.

On to `OC[C@H]1O[C@H](O[C@]2(CCl)O[C@H](CCl)[C@@H](O)[C@@H]2O)[C@H](O)[C@@H](O)[C@H]1Cl` [Sample 31, 4,1′,6′-trichloro-4,1′,6′-trideoxy-galactosucrose], for which, under setting [1], the “Days to pH Failure” value was found to be 5 Days and the “Initial pH” value is given as 6.03. Also, under setting [2], the “Initial pH difference” value is listed as “+0.06”.

As to `OC[C@H]1O[C@H](O[C@]2(CCl)O[C@H](CCl)[C@@H](O)[C@@H]2O)[C@H](O)[C@@H](O)[C@H]1Cl` [Sample 32, 4,1′,6′-trichloro-4,1′,6′-trideoxy-galactosucrose], the “stability at intermediate moisture contents compared with final moisture levels” value (“stability … compared with final moisture levels” for short) is on record as “less stable at intermediate moisture contents (3 to 5%) than they were at their final moisture levels”. Under setting [3], the “Days to pH Failure” value was found to be 3 Days and the “Initial pH difference” value is given as −0.90.

For the compound `OC[C@H]1O[C@H](O[C@]2(CCl)O[C@H](CCl)[C@@H](O)[C@@H]2O)[C@H](O)[C@@H](O)[C@H]1Cl` [Sample 33, 4,1′,6′-trichloro-4,1′,6′-trideoxy-galactosucrose], the “stability … compared with final moisture levels” value was “less stable at intermediate moisture contents (3 to 5%) than they were at their final moisture levels”. Further, under setting [3], the “Days to pH Failure” value stood at 4 Days and the “Initial pH difference” value was −0.94.

Turning to `OC[C@H]1O[C@H](O[C@]2(CCl)O[C@H](CCl)[C@@H](O)[C@@H]2O)[C@H](O)[C@@H](O)[C@H]1Cl` [Sample 34, 4,1′,6′-trichloro-4,1′,6′-trideoxy-galactosucrose], the “stability … compared with final moisture levels” value is on record as “less stable at intermediate moisture contents (3 to 5%) than they were at their final moisture levels”. Under setting [3], the “Days to pH Failure” value came to 3 Days and the “Initial pH difference” value is −1.03.

For `OC[C@H]1O[C@H](O[C@]2(CCl)O[C@H](CCl)[C@@H](O)[C@@H]2O)[C@H](O)[C@@H](O)[C@H]1Cl` [Sample 35, 4,1′,6′-trichloro-4,1′,6′-trideoxy-galactosucrose], the “Days to pH Failure (Final Product Moisture Content)” value turned out to be 5 Days and the “Days to pH Failure (Initial Moisture Content)” value is listed as 7 Days. Besides, under setting [3], the “Days to pH Failure” value amounted to 5 Days and the “Initial pH difference” value is listed as “+0.10”.

`OC[C@H]1O[C@H](O[C@]2(CCl)O[C@H](CCl)[C@@H](O)[C@@H]2O)[C@H](O)[C@@H](O)[C@H]1Cl` [Sample 36, 4,1′,6′-trichloro-4,1′,6′-trideoxy-galactosucrose]: the “Days to pH Failure (Final Product Moisture Content)” value was determined as 5 Days and the “Days to pH Failure (Initial Moisture Content)” value was determined as 7 Days. Under setting [3], the “Days to pH Failure” value is recorded as 5 Days and the “Initial pH difference” value was “+0.04”.

For `OC[C@H]1O[C@H](O[C@]2(CCl)O[C@H](CCl)[C@@H](O)[C@@H]2O)[C@H](O)[C@@H](O)[C@H]1Cl` [Sample 37, 4,1′,6′-trichloro-4,1′,6′-trideoxy-galactosucrose], the “Days to pH Failure (Final Product Moisture Content)” value worked out at 5 Days and the “Days to pH Failure (Initial Moisture Content)” value is recorded as 21 Days. Also, under setting [3], the “Days to pH Failure” value is 5 Days and the “Initial pH difference” value was −0.06.

Regarding `OC[C@H]1O[C@H](O[C@]2(CCl)O[C@H](CCl)[C@@H](O)[C@@H]2O)[C@H](O)[C@@H](O)[C@H]1Cl` [Sample 38, 4,1′,6′-trichloro-4,1′,6′-trideoxy-galactosucrose], the “Days to pH Failure (Final Product Moisture Content)” value turned out to be 6 Days and the “Days to pH Failure (Initial Moisture Content)” value is 23 Days. Also, under setting [3], the “Days to pH Failure” value worked out at 6 Days and the “Initial pH difference” value is listed as “+0.17”.
